Experimental data as given in patent US11040959B2, “Diprovocims: a new and potent class of TLR agonists” (The Scripps Research Institute, priority 2016, dated 2021).
Read-outs that look alike come from different tables or passages of the source.

How the values were obtained:
[1] = system: differentiated human THP-1 cells; experiment: stimulated release of TNF-α from differentiated human THP-1 cells (ELISA, dose-response); assay type: cell-based
Summary of the method: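 Human THP-1 cells were PMA-differentiated toward macrophages, and stimulated TNF-α release was measured by ELISA. EC50 values were taken from dose-response curves.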

mouse macrophages = experiment: stimulated release of TNF-α from mouse macrophages; assay type: cell-based; conditions: for activity in stimulating TNF-α release from mouse macrophages (in words): tested up to 5 μM where stated
Summary of the method: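 EC50 derived from dose-response curves for stimulated TNF-α release from mouse macrophages.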

[2] = Homo sapiens, THP-1, Table 7, TNF-α release from human THP-1 cells, read-out: EC50 (nM) (THP-1)
[3] = Macrophage, Table 7, TNF-α release from mouse macrophages, read-out: EC50 (nM) (mouse)
[4] = Macrophage, table of 125-132 (one lipid side chain, R and S), mouse macrophages, read-out: EC50 (nM) (mouse)
[5] = Homo sapiens, THP-1, table of 125-132 (one lipid side chain, R and S), human THP-1 cells, read-out: EC50 (nM) (THP-1)
[6] = Homo sapiens, THP-1, table of 133-139 (two lipid side chains), human THP-1 cells, read-out: EC50 (nM) (THP-1)
[7] = Macrophage, table of 133-139 (two lipid side chains), mouse macrophages, read-out: EC50 (nM) (mouse)

SMILES: O=C(NCCc1ccc(F)cc1)[C@@H]1CN(C(=O)c2ccc(-c3ccc(C(=O)N4C[C@@H](C(=O)NCCc5ccc(F)cc5)[C@H](C(=O)NCCc5ccc(F)cc5)C4)cc3)cc2)C[C@H]1C(=O)NCCc1ccc(F)cc1 [Compound 104, (3S,3′S,4S,4′S)-1,1′-([1,1′-Biphenyl]-4,4′-dicarbonyl)bis(N^3,N^4-bis(4-fluoro-phenethyl)-pyrrolidine-3,4-dicarboxamide)]
- EC50 [1, 2]: > 5000 nM
- EC50 (mouse macrophages; [3]): > 5000 nM

SMILES: O=C(NCCc1ccc(F)cc1)C1CN(C(=O)COCC(=O)N2CC(C(=O)NCCc3ccc(F)cc3)C(C(=O)NCCc3ccc(F)cc3)C2)CC1C(=O)NCCc1ccc(F)cc1 [Compound 105, (3S,3′S,4S,4′S)-1,1′-(2,2′-Oxybis(acetyl))bis-(N^3,N^4-bis(4-fluorophenethyl)pyrrolidine-3,4-dicarboxamide)]
- EC50 ([1]; Table 7, TNF-α release from human THP-1 cells, read-out: EC50 (nM) (THP-1)): > 5000 nM
- EC50 (mouse macrophages; Table 7, TNF-α release from mouse macrophages, read-out: EC50 (nM) (mouse)): > 5000 nM

SMILES: O=C(NCCc1ccc(F)cc1)[C@@H]1CN(C(=O)[C@@H]2CCC[C@@H](C(=O)N3C[C@@H](C(=O)NCCc4ccc(F)cc4)[C@H](C(=O)NCCc4ccc(F)cc4)C3)C2)C[C@H]1C(=O)NCCc1ccc(F)cc1 [Compound 106, (3S,3′S,4S,4′S)-1,1′-((1R,3R)-Cyclohexane-1,3-dicarbonyl)bis(N^3,N^4-bis(4-fluorophenethyl)-pyrrolidine-3,4-dicarboxamide)]
- EC50 [1, 2]: > 5000 nM
- EC50 (mouse macrophages; [3]): > 5000 nM

SMILES: O=C(NCCc1ccc(F)cc1)[C@@H]1CN(C(=O)[C@H]2CC[C@H](C(=O)N3C[C@@H](C(=O)NCCc4ccc(F)cc4)[C@H](C(=O)NCCc4ccc(F)cc4)C3)CC2)C[C@H]1C(=O)NCCc1ccc(F)cc1 [Compound 107, (3S,3′S,4S,4′S)-1,1′-((1S,4S)-Cyclohexane-1,4-dicarbonyl)bis(N^3,N^4-bis(4-fluorophenethyl)-pyrrolidine-3,4-dicarboxamide)]
- EC50 [1, 2]: > 5000 nM
- EC50 (mouse macrophages; [3]): > 5000 nM

SMILES: O=C(NCCc1ccc(F)cc1)[C@@H]1CN(C(=O)[C@H]2CC[C@@H](C(=O)N3C[C@@H](C(=O)NCCc4ccc(F)cc4)[C@H](C(=O)NCCc4ccc(F)cc4)C3)CC2)C[C@H]1C(=O)NCCc1ccc(F)cc1 [Compound 108, (3S,3′S,4S,4′S)-1,1′-((1R,4R)-Cyclohexane-1,4-dicarbonyl)bis(N^3,N^4-bis(4-fluorophenethyl)-pyrrolidine-3,4-dicarboxamide)]
- EC50 [1, 2]: > 5000 nM
- EC50 (mouse macrophages; [3]): > 5000 nM

SMILES: O=C(NCCc1ccc(F)cc1)[C@@H]1CN(C(=O)c2ccc3cc(C(=O)N4C[C@@H](C(=O)NCCc5ccc(F)cc5)[C@H](C(=O)NCCc5ccc(F)cc5)C4)ccc3c2)C[C@H]1C(=O)NCCc1ccc(F)cc1 [Compound 109, (3S,3′S,4S,4′S)-1,1′-(Naphthalene-2,6-dicarbonyl)-bis(N^3,N^4-bis(4-fluorophenethyl)-pyrrolidine-3,4-dicarboxamide)]
- EC50 [1, 2]: > 5000 nM
- EC50 (mouse macrophages; [3]): > 5000 nM

SMILES: O=C(NCCc1ccc(F)cc1)[C@@H]1CN(C(=O)c2ccc(C(=O)N3C[C@@H](C(=O)NCCc4ccc(F)cc4)[C@H](C(=O)NCCc4ccc(F)cc4)C3)c(O)c2)C[C@H]1C(=O)NCCc1ccc(F)cc1 [Compound 110, (3S,3′S,4S,4′S)-1,1′-(2-Hydroxy-terephthaloyl)-bis(N^3,N^4-bis(4-fluorophenethyl)-pyrrolidine-3,4-dicarboxamide)]
- EC50 [1, 2]: 130 nM
- EC50 (mouse macrophages; [3]): > 5000 nM

SMILES: O=C(NCCc1ccc(F)cc1)[C@@H]1CN(C(=O)c2ccc(C(=O)N3C[C@@H](C(=O)N[C@H]4C[C@@H]4c4ccccc4)[C@H](C(=O)N[C@H]4C[C@@H]4c4ccccc4)C3)cc2)C[C@H]1C(=O)NCCc1ccc(F)cc1 [Compound 114, (3S,4S)-1-(4-((3S,4S)-3,4-Bis(((1S,2R)-2-phenylcyclopropyl)carbamoyl)-pyrrolidine-1-carbonyl)benzoyl)—N^3,N^4-bis(4-fluorophenethyl)-pyrrolidine-3,4-dicarboxamide]
- activity in stimulating TNF-α release from human THP-1 cells (in words) ([1]; tested up to 5 μM where stated): active
- activity in stimulating TNF-α release from mouse macrophages (in words) (mouse macrophages): active

SMILES: O=C(NCCc1ccc(F)cc1)[C@H]1CN(C(=O)c2ccc(C(=O)N3C[C@@H](C(=O)N[C@H]4C[C@@H]4c4ccccc4)[C@H](C(=O)N[C@H]4C[C@@H]4c4ccccc4)C3)cc2)C[C@@H]1C(=O)NCCc1ccc(F)cc1 [Compound 115]
- fold less active than 114 in human THP-1 cells ([1]; human THP-1 cells): 5 fold
- activity in stimulating TNF-α release from mouse macrophages (in words) (mouse macrophages): inactive

SMILES: O=C(NC1C[C@@H]1c1ccc(F)cc1)[C@@H]1CN(C(=O)c2ccc(C(=O)N3C[C@@H](C(=O)NC4C[C@@H]4c4ccc(F)cc4)[C@H](C(=O)NC4C[C@@H]4c4ccc(F)cc4)C3)cc2)C[C@H]1C(=O)NC1C[C@@H]1c1ccc(F)cc1 (stereo partly drawn) [Compound 118, (3S,3′S,4S,4′S)-1,1′-Terephthaloyl-bis(N^3,N^4-bis-((1S,2R)-2-(4-fluorophenyl)cyclopropyl)pyrrolidine-3,4-dicarboxamide)]
- EC50 ([1]; Homo sapiens, THP-1, running text, read-out: EC50, stimulated release of TNF-α from differentiated human THP-1 cells): 0.13 nM
- EC50 (mouse macrophages; Mus musculus, Macrophage, read-out: EC50, stimulated release of TNF-α from mouse macrophages): 1.2 nM

SMILES: CCCCCCCCCCCCCCCCNC(=O)[C@@H]1CCN(C(=O)c2ccc(C(=O)N3C[C@@H](C(=O)N[C@H]4C[C@@H]4c4ccccc4)[C@H](C(=O)N[C@H]4C[C@@H]4c4ccccc4)C3)cc2)C1 [Compound 125, (3S,4S)-1-(4-((R)-3-(Hexadecylcarbamoyl)-pyrrolidine-1-carbonyl)benzoyl)-N^3,N^4-bis((1S,2R)-2-phenylcyclopropyl)pyrrolidine-3,4-dicarboxamide]
- EC50 ([1]; table of 125-132 (one lipid side chain, R and S), human THP-1 cells, read-out: EC50 (nM) (THP-1)): 15 nM
- EC50 (mouse macrophages; [4]): > 5000 nM

SMILES: CCCCCCCCCCCCCCNC(=O)[C@@H]1CCN(C(=O)c2ccc(C(=O)N3C[C@@H](C(=O)N[C@H]4C[C@@H]4c4ccccc4)[C@H](C(=O)N[C@H]4C[C@@H]4c4ccccc4)C3)cc2)C1 [Compound 126, (3S,4S)—N^3,N^4-Bis((1S,2R)-2-phenylcyclopropyl)-1-(4-((R)-3-(tetradecylcarbamoyl)pyrrolidine-1-carbonyl)benzoyl)pyrrolidine-3,4-dicarboxamide]
- EC50 [1, 5]: 2 nM
- EC50 (mouse macrophages; [4]): 260 nM

SMILES: CCCCCCCCCCCCNC(=O)[C@@H]1CCN(C(=O)c2ccc(C(=O)N3C[C@@H](C(=O)N[C@H]4C[C@@H]4c4ccccc4)[C@H](C(=O)N[C@H]4C[C@@H]4c4ccccc4)C3)cc2)C1 [Compound 127, (3S,4S)-1-(4-((R)-3-(Dodecylcarbamoyl)-pyrrolidine-1-carbonyl)benzoyl)—N^3,N^4-bis((1S,2R)-2-phenylcyclopropyl)pyrrolidine-3,4-dicarboxamide]
- EC50 [1, 5]: 9 nM
- EC50 (mouse macrophages; [4]): 700 nM

SMILES: CCCCCCCCCCNC(=O)[C@@H]1CCN(C(=O)c2ccc(C(=O)N3C[C@@H](C(=O)N[C@H]4C[C@@H]4c4ccccc4)[C@H](C(=O)N[C@H]4C[C@@H]4c4ccccc4)C3)cc2)C1 [Compound 128, (3S,4S)-1-(4-((R)-3-(Decylcarbamoyl)pyrrolidine-1-carbonyl)benzoyl)—N^3,N^4-bis((1S,2R)-2-phenyl-cyclopropyl)pyrrolidine-3,4-dicarboxamide]
- EC50 [1, 5]: 210 nM
- EC50 (mouse macrophages; [4]): 2400 nM

SMILES: CCCCCCCCCCCCCCNC(=O)[C@H]1CCN(C(=O)c2ccc(C(=O)N3C[C@@H](C(=O)N[C@H]4C[C@@H]4c4ccccc4)[C@H](C(=O)N[C@H]4C[C@@H]4c4ccccc4)C3)cc2)C1 [Compound 130, (3S,4S)—N^3,N^4-Bis((1S,2R)-2-phenylcyclopropyl)-1-(4-((S)-3-(tetradecylcarbamoyl)pyrrolidine-1-carbonyl)benzoyl)pyrrolidine-3,4-dicarboxamide]
- EC50 [1, 5]: 4 nM
- EC50 (mouse macrophages; [4]): 240 nM

SMILES: CCCCCCCCCCCCNC(=O)[C@H]1CCN(C(=O)c2ccc(C(=O)N3C[C@@H](C(=O)N[C@H]4C[C@@H]4c4ccccc4)[C@H](C(=O)N[C@H]4C[C@@H]4c4ccccc4)C3)cc2)C1 [Compound 131, (3S,4S)-1-(4-((S)-3-(Dodecylcarbamoyl)-pyrrolidine-1-carbonyl)benzoyl)—N^3,N^4-bis((1S,2R)-2-phenylcyclopropyl)pyrrolidine-3,4-dicarboxamide]
- EC50 [1, 5]: 4 nM
- EC50 (mouse macrophages; [4]): 1000 nM

SMILES: CCCCCCCCCCNC(=O)[C@H]1CCN(C(=O)c2ccc(C(=O)N3C[C@@H](C(=O)N[C@H]4C[C@@H]4c4ccccc4)[C@H](C(=O)N[C@H]4C[C@@H]4c4ccccc4)C3)cc2)C1 [Compound 132, (3S,4S)-1-(4-((S)-3-(Decylcarbamoyl)pyrrolidine-1-carbonyl)benzoyl)—N^3,N^4-bis((1S,2R)-2-phenyl-cyclopropyl)pyrrolidine-3,4-dicarboxamide]
- EC50 [1, 5]: 33 nM
- EC50 (mouse macrophages; [4]): 1800 nM

SMILES: CCCCCCCCCCCCCCCCNC(=O)[C@@H]1CN(C(=O)c2ccc(C(=O)N3C[C@@H](C(=O)N[C@H]4C[C@@H]4c4ccccc4)[C@H](C(=O)N[C@H]4C[C@@H]4c4ccccc4)C3)cc2)C[C@H]1C(=O)NCCCCCCCCCCCCCCCC [Compound 133, (3S,4S)-1-(4-((3S,4S)-3,4-Bis(((1S,2R)-2-phenyl-cyclopropyl)carbamoyl)pyrrolidine-1-carbonyl)-benzoyl)-N^3,N^4-dihexadecylpyrrolidine-3,4-dicarboxamide]
- EC50 [1, 6]: 2.5 nM
- EC50 (mouse macrophages; [7]): 1000 nM

SMILES: CCCCCCCCCCCCCCNC(=O)[C@@H]1CN(C(=O)c2ccc(C(=O)N3C[C@@H](C(=O)N[C@H]4C[C@@H]4c4ccccc4)[C@H](C(=O)N[C@H]4C[C@@H]4c4ccccc4)C3)cc2)C[C@H]1C(=O)NCCCCCCCCCCCCCC [Compound 134, (3S,4S)-1-(4-((3S,4S)-3,4-Bis(((1S,2R)-2-phenylcyclopropyl)carbamoyl)pyrrolidine-1-carbonyl)benzoyl)-N^3,N^4-ditetradecylpyrrolidine-3,4-dicarboxamide]
- EC50 [1, 6]: 1.3 nM
- EC50 (mouse macrophages; [7]): 620 nM
